Tested on: Oestrone sulphatase activity in human white blood cells
Assay: Oestrone sulphatase activity in white blood cells of volunteers after an oral dose of inhibitor
Assay type: in vivo
Conditions: two healthy male volunteers; single oral dose 0.5 mg/Kg; white blood cells from blood samples taken for up to 28 days
Procedure: Purified leukocytes (according to Tulchinsky JCEM 65, 1026, 1987) from 10 ml whole blood are suspended in 1 ml PBS-sucrose. 0.2 ml of this is used for EST assay as above (incubated for 2 hr at 37° C. in a final volume of 1 ml).
After incubation, samples are extracted with 4 ml toluene. 2 ml of this is counted in 10 ml Scintillant.
The assay of the present invention, as described above, was investigated using two healthy, male volunteers whom received an oral dose of a steroid sulphatase inhibitor (Oestrone-3-O-sulphamate, 0.5 mg/Kg). In this regard, white blood cells were prepared from blood samples obtained from the subjects for up to 28 days. […] The results from this study confirm that the measurement of Oestrone Sulphatase activity in white blood cells will therefore allow the extent and duration of sulphatase inhibition to be monitored in subjects receiving steroid sulphatase inhibitors therapeutically. More details and results of these studies are shown in the attached FIG. 30. […] In particular, the assay of the present invention allows one to measure oestrone sulphatase activity in human white blood cells to monitor the extent of oestrone sulphatase inhibition.

## C[C@]12CC[C@@H]3c4ccc(OS(N)(=O)=O)cc4CC[C@H]3[C@@H]1CCC2=O [Oestrone-3-O-sulphamate]
  inhibition of Oestrone sulphatase activity in white blood cells: significant inhibition

From patent publication US5891620A, “Steroid sulfatase assay” (Imperial College of Science, Technology and Medicine, priority 1994, dated 1999)
